Data from publication PMC10313070, “Design, in silico and pharmacological evaluation of a peptide inhibitor of BACE-1” (Frontiers in Pharmacology, 2023).
“Also recorded” adds a separate entry of the source. No end group written: not given here.

Assays:
SH-SY5Y cells = test system: SH-SY5Y cells; set-up: method as in Lee et al., 2019; details: ref Lee et al., 2019; cited from earlier work
BACE-1 [1] = test system: BACE-1; set-up: method as in Lee et al., 2019; details: ref Lee et al., 2019; cited from earlier work
recombinant BACE-1 = molecular target: T1, recombinant BACE-1 (Homo sapiens, UniProt P56817); assay: Enzymatic kinetics on recombinant BACE-1 (Lineweaver-Burk); assay type: biochemical; details: 10 μM peptide, substrate 0–32 µM
T1 construct: purchased Sigma-Aldrich MAK237
Method: The peptide was commercially obtained (manufactured by Biotik, commercialized by FastBio, Brazil) and synthetized by the solid phase with >95% purity. The peptide was tested using an enzymatic kinetics model, in which 10 μM of peptide (diluted in 0.9% saline solution) was incubated with recombinant BACE-1 and reaction buffer for 15 min at room temperature (MAK237, Sigma-Aldrich, St Louis, MO, United States). After that, H-Arg-Glu (EDANS)[…](DABCYL)Arg-OH quencher substrate (0–32 µM) was added to the reaction mixture. Readings were taken using a fluorimeter (Glomax, Promega, Madison, WI, United States) every 5 min at 37° in a λex = 335 and λem = 510. Experiments were conducted in triplicate in two independent sets, and the mean of fluorescence was obtained for further calculations. The velocity of the reaction was calculated as ∆ fluorescence values at ∆ time for each substrate concentration. 1/V and 1/S values were obtained and plotted in a graph (Lineweaver–Burk plot), and kinetic parameters (slope, Vmax, Km, and Ki) were calculated as the mean ± SD using GraphPad Prism v5.

in vivo = assay: in vivo; set-up: species or system mice; details: mouse
Method: Authorization for pharmacokinetics analyses was obtained from the Ethics Committee of Instituto Butantan (CEUAIB 58872400322), where the experiments with animals were carried out. Healthy adult male Swiss mice weighing approximately 25 g were used. All animals were placed in microisolators for a 12-h light/dark cycle, 70% humidity, and a constant average temperature (22°C).
(§1) A single dose of the peptide diluted in sterile PBS (pH 7.4) was injected intravenously in the bolus into the caudal vein of mice (n = 3) at a concentration of 4 mg/kg (0.2 mL). A group of animals (n = 3) received the sterile saline solution for the plasma and organ control, without the peptide (named ‘basal’). Blood was taken after 0, 5, and 30 min and 2, 6, and 24 h after injection. At these times, blood was collected via the retro-orbital route using a Pasteur pipette and dispensed into plastic tubes containing EDTA. The final blood volume was subjected to centrifugation at 1,500 rpm for 10 min at room temperature to obtain plasma, which was stored in a −80°C freezer until the analysis.
(§2) Both plasma and organs (150 μL) were incubated with 100 mM DL-dithiothreitol at room temperature for 30 min; after that, they were incubated to 300 mM iodoacetamide at room temperature for another 30 min in the dark. Subsequently, 150 μL of 0.1% formic acid solution and 400 μL of Milli-Q water were added and agitated for 5 min. The samples were then submitted to solid-phase extraction using a C18 cartridge (Supelco) with elution in a 60:40 acetonitrile:water solution (v/v). The eluate was inserted by mass spectrometry for analysis and quantification.
(§3) The determination and quantification of the peptide in plasma and organs of mice were performed by liquid chromatography (UPLC system, Waters Co.) coupled to mass spectrometry ESI-Xevo TQ-S (Waters Co., United States). The samples were inserted in a C18 column (Luna, 5 μm, 150 × 4.6 mm, Phenomenex) and eluted by 70% methanol in water, containing 0.05% formic acid in a constant flow of 0.3 mL/min. The ion was monitored at the positive ionization mode, 150°C source temperature, 550°C desolvation temperature, 800 L/h desolvation gas flow, 2 kV for capillary, and […] cone voltage. Data were acquired and analyzed using MassLynx 4.
(§4) To define the relationship between the instrument response and the known concentration of the peptide, a calibration curve with six points of the peptide (0.1–20 μg/mL for plasma and 5–40 μg/mL for organs) was generated in a range defined according to the sensitivity of the method and the expected concentrations of the samples in animals (based on the amount of peptide injected).
Each analysis lot contained the following samples: a calibration curve consisting of a blank sample (peptide-free biological matrix), samples containing peptide standard, and plasma or organ samples. Calibration functions were calculated using the peak areas of the peptide. The peptide concentrations in the samples were calculated from the weighted linear regression equation (1/×2) obtained from the calibration curve (peptide concentration as the function of the area). This regression model (1/×2) was used because of the amplitude of the calibration curve.
(§5) The plasma concentration (Cp), in µg/L, was determined by mass spectrometric analysis, and then, area data were analyzed using the PKSolver add-in program for Microsoft Excel. Pharmacokinetics parameters as the natural logarithm of Cp (lnCp), Cp0, half-life, and clearance were calculated in a compartmental analysis of plasma data after the intravenous bolus input ([Zhang et al., 2010]). For organs, data are present as mean ± SD for each point.

[2] = Histology of organs and toxicity after peptide injection; assay type: in vivo, mice
Text: Organs were removed and immediately fixed in Bouin’s solution for processing by dehydration ethanol sessions and historesin embedding to obtain 3 µm thick transversal slides. Sections were stained with hematoxylin–eosin and examined using a light microscope for a qualitative analysis.

[3] = Peptide quantification in mouse organs by mass spectrometry; assay type: in vivo; details: mice, 4 mg/kg i.v.
Method: as §1
Moreover, organs were obtained at the same times, after a lethal injection of anesthetics (ketamine 300 mg/kg and xylazine 30 mg/kg). The organs collected included the brain, pancreas, spleen, kidneys, lungs, and liver. The organs were washed with the saline solution to remove excess blood, frozen in liquid nitrogen, and kept at −80°C until use. For the experiments, organs were submerged in 1 mL of 50 mM PBS with pH 7.5 containing peptidases inhibitors (aprotinin, bestatin, E-64, leupeptin, and pepstatin A, a protease inhibitor cocktail, Sigma-Aldrich) and lysed in a tissue and cell disruptor (ULTRA-TURRAX IKA, Staufen, Germany). The lysate was centrifuged for 2 min at 13,200 rpm at 4°C, and the supernatant resulting from centrifugation was stored in a −80°C freezer until the analysis.
as §2, §3, §4, §5

BACE-1 [4] = test system: BACE-1; set-up: method as in Wu et al., 2016; details: ref Wu et al., 2016; cited from earlier work

T1 sequence (P56817 46-501): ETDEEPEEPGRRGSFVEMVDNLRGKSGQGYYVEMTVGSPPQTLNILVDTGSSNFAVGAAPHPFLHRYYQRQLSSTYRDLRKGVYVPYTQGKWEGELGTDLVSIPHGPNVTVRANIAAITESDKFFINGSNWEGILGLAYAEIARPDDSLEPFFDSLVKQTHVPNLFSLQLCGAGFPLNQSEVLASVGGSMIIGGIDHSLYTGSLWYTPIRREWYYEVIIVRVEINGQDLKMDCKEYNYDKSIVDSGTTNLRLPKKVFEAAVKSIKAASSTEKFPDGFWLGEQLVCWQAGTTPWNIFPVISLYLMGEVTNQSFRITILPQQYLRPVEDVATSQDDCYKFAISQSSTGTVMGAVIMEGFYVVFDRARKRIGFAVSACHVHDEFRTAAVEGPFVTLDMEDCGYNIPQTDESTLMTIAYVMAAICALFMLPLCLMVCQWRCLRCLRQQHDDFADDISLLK

## Leu–Asn
SH-SY5Y cells
  Aβ production in SH-SY5Y cells: reducing the Aβ production
BACE-1 [1]
  BACE-1 inhibitory activity among fragments derived from the original peptide: most potent activity

## SLAFVDVLN [peptide]
Recombinant BACE-1
  Ki: 94 nM
In vivo; male, Swiss, iv, 4 mg/kg
  AUC(0-inf): 2600 ng·h/mL
  AUC(0-t): 2600 ng·h/mL
  C0: 2600 ng/mL
  MRT: 1 h
In vivo; male, Swiss, iv, 4 mg/kg, t1/2
  half-life: ~1 h
In vivo
  Vss: 0.0015
  clearance: 0.0015
In vivo; iv
  Enzymatic cleavage of the peptide in vivo (intact mass, fragments by mass spectrometry): no enzymatic cleavage
In vivo; iv, 4 mg/kg
  AUMC: 2,595.96 μg/L*h^2
  CL: 0.00154 (mg/kg)/(μg/L)/h
  V: 0.00154 (mg/kg)/(μg/L)
  Vss: 0.0015 mg/kg/(μg/L)
[2]; mice, single dose
  Clinical signals of toxicity: no clinical signals of toxicity were observed
[2]; spleen, liver, pancreas, lungs, kidneys, 5 and 30 min, 2 and 6 h after single 4 mg/kg i.v. dose, 4 mg/kg
  Histological alterations (cell/tissue morphology, inflammatory infiltrate): no morphological alteration in any organ; also recorded: No alterations were detected
[3]
  Peptide concentration in the kidneys over time: increased 30 min after the injection, slightly decreased after 2 h, but increased after 6 h
  Time of peak of the peptide in the brain: 2 h
  Time of peak of the peptide in the liver: 30 min
  Time of peak of the peptide in the spleen: 30 min
  Time the peptide could be found in the brain: up to 6 h
[3]; 5 min after injection
  Peptide concentration in the lungs: high concentration
[3]; 4 mg/kg
  Peptide in the pancreas: not possible to identify; also recorded: could not be found

## pyrazinecarboxamide
BACE-1 [4]
  IC50: < 1 nM
